Results on three molecules are retold here after paper PMC7512555 (mBio, 2020).

Series [1] concerns the target T1, TP0037 (TpD-LDH; rTP0037) (Treponema pallidum, UniProt O83080).
T1 construct: gene ldhD; full-length, residues 1-331, in pProEX-HTb (vector-derived tag); monomer 39,190 g/mol, homodimer in solution
Description: colorimetric NADH-formation kit assay (A575/A605). It counts as biochemical. The note with it: co-substrate NAD+, 37°C, 30 min.

Series [2] concerns the molecule itself. Description: static light scattering; Dynapro Nanostar, 25°C, storage buffer (20 mM HEPES pH 7.5, 100 mM NaCl, 2 mM BOG), 1.54 mg/ml, three technical replicates; DLS monitored simultaneously.

In the case of `C[C@@H](O)C(=O)O` [D-lactate], in series [1], the “colorimetric NADH-formation kit assay (A575/A605)” value was “monitor the amount of NADH formation in the presence of NAD^+, D-lactate, and the enzyme”.

`C[C@H](O)C(=O)O` [L-lactate]: the “colorimetric NADH-formation kit assay (A575/A605)” value in series [1] (very weak substrate) is reported as “only about one-thousandth of the activity was observed when using L-lactate as the substrate”.

B1: TP0037, D-lactate dehydrogenase of Treponema pallidum (enzyme, UniProt O83080 1-331, looked up)
chain: MRCVVFNLREEEAPYVEKWKQSHPGVVVDTYEEPLTAKNKELLKGYEGLVVMQFLAMEDEVYDYMGACKLKVLSTRTAGFDMYNATLLKKHGIRLTNVPSYSPNAIGEYALAAALQLTRHAREIETFVRKRDFRWQKPILSKELRCSRVGILGTGRIGQAAARLFKGVGAQVVGFDPYPNDAAKEWLTYVSMDELLSTSDVISLHMPATKDSHHLINAKTIAQMKDGVYLVNTARGAVIDSQALLDSLDKGKIAGAALDAYEFEGPYIPKDNGNNPITDTVYARLVAHERIIYTPHIAFYTETAIENMVFNSLDACTTVLRGEPCAAEIKL
notes: TP0037 (D-lactate dehydrogenase), Treponema pallidum, amino acid residues 1 to 331, amplified from genomic DNA; called full-length in the results; also called rTP0037; TpD-LDH; source: E. coli BL21(DE3), purified to apparent homogeneity
In general, stoichiometry N refers to the number of molecules, sites or subunits per partner or assembly. In the case of B1, the “stoichiometry N” value in series [2] amounted to 2.
